# Laboratory results taken from patent US20070101461A1, “Method for Improving Phytoremediation Treatment of a Contaminated Medium” (priority 2001, published 2007).
# What was measured:
# Iris pseudocarus = experiment: survival of plants in the presence of 2,4-D; type: in vivo; settings: 5 mg/l 2,4-D
# plant = settings: cited from earlier work
# Lupinus luteus = experiment: toxicity test: toluene on growth of Lupinus luteus; settings: hydroponic, 0-3000 mg per liter tested, all other exposed plants dead
# yellow lupine = experiment: plant growth with toluene during hydroponic cultivation; settings: non-inoculated plants
# Pseudomonas sp. VM422 = experiment: zinc resistance phenotype, MIC on Tris minimal medium; type: cell-based; settings: strain VM422
structure (smiles),measurement,setting,value
"O=C(O)COc1ccc(Cl)cc1Cl [2,4-D, 2,4-dichlorophenoxyacetic acid]","Dead plants, Non-inoculated plants + 2,4-D",Iris pseudocarus,75%
same,"Healthy plants, Non-inoculated plants + 2,4-D",Iris pseudocarus,25%
ClC(Cl)=C(Cl)Cl [PER],"Fate in plant (toxic, build up, or volatile)",plant,Volatile
"ClC=C(Cl)Cl [TCE, tri-chloro-ethylene]","Fate in plant (toxic, build up, or volatile)",plant,"Volatile, Build-up"
Cc1ccccc1 [toluene],toluene concentration at which the exposed plant was not dead at the end of the third week,Lupinus luteus,100 mg per liter
same,toluene dose at which non-inoculated controls showed growth reduction,yellow lupine,100 mg/L
[Zn] [zinc],MIC value for zinc,Pseudomonas sp. VM422,20 mM
